# Measurements: patent publication US11384172B2, “Polymer, antimicrobial agent, disinfectant, antimicrobial material, disinfectant material, antimicrobial method, and disinfecting method” (JSR CORPORATION, priority 2015, dated 2022)
# Columns and labels:
# Assay in all cases: Antimicrobial and disinfecting properties test (liquid medium dilution series, visual turbidity)
# Type in all cases: cell-based
# Details in all cases: 37° C., 16 hours
# [1] = tested on: S. aureus (drug sensitive strain, ATCC29213)
# Procedure: (§1) Into 500 mL of hexane, 10 g of the polymer obtained in each of the above Synthesis Examples was added dropwise over 2 hours, and then vacuum drying was performed at 40° C. for 24 hours. The powder thus obtained was used for a test.
# (§2) 30.4 g of a medium (Mueller Hinton II) was weighed out, and dissolved in 800 mL of sterile water, and the resultant mixture was subjected to an autoclave treatment at 121° C. and 2 atm for 15 minutes.
# (§3) Each of the bacteria of the following (1) to (8) was suspended in 1 mL of the liquid medium obtained in the above “preparation of liquid medium”, OD600 was measured, and a liquid medium was added so that the amount of bacteria is 1×10^8 cfu/mL to prepare each of the bacterial liquids.
# (2) S. aureus (drug sensitive strain, ATCC29213)
# (§4) A polymer (A-1) and water were mixed to prepare 10 mg/mL of a polymer aqueous solution. […]
# (§5) The turbidity of each of the wells was visually discriminated and the growing state of the bacteria was confirmed. The concentrations of the dilution series, at which it was visually determined that the antimicrobial action and disinfecting action were performed without cloudiness, are shown in Table 3.
# (§6) The antimicrobial and the disinfecting properties were evaluated in a similar manner as in Example 1 except that each of the compounds shown in Table 3 was used in place of the polymer (A-1) in Example 1. […]
# [2] = tested on: E. coli (drug sensitive strain, DH5α)
# Procedure: as §1, §2, §3
# (1) E. coli (drug sensitive strain, DH5α)
# as §4, §5, §6
# [3] = tested on: Pseudomonas aeruginosa (MP-1 producing strain, ST235)
# Procedure: as §1, §2, §3
# (7) Pseudomonas aeruginosa (MP-1 producing strain, ST235)
# as §4, §5, §6
# [4] = tested on: A. baumannii (OXA-23 producing strain, ST2)
# Procedure: as §1, §2, §3
# (6) A. baumannii (OXA-23 producing strain, ST2)
# as §4, §5, §6
# [5] = tested on: MRSA (S. aureus methicillin-resistant strain)
# Procedure: as §1, §2, §3
# (8) MRSA (S. aureus methicillin-resistant strain)
# as §4, §5, §6
# [6] = tested on: Klebsiella pneumoniae (KPC-2 producing strain, ST258)
# Procedure: (5) Klebsiella pneumoniae (KPC-2 producing strain, ST258)
# Into 897.6 μL of the prepared liquid medium, 102.4 μL of the above-described polymer aqueous solution was added so that the concentration of the polymer is 1024 μg/mL. This solution was diluted 2 times in wells of a 96-well plate to prepare a dilution series of 1024 μg/mL to 0.015625 μg/mL. Next, 5 μL of a bacterial liquid was added to each of the wells and incubated at 37° C. for 16 hours.
# [7] = tested on: E. coli (NDM-1 producing strain)
# Procedure: as §1, §2, §3
# (3) E. coli (NDM-1 producing strain)
# as §4, §5, §6
# [8] = tested on: E. coli (IMP-1 producing strain, ST131)
# Procedure: as §1, §2, §3
# (4) E. coli (IMP-1 producing strain, ST131)
# as §4, §5, §6
structure (smiles),measurement,setting,value
"N=C(N)NC(N)=Nc1ccccc1 [Phenyl biguanide, phenyl biguanide]",concentration of the dilution series at which antimicrobial and disinfecting action was visually determined without cloudiness,[1],>1024 µg/mL
same,concentration of the dilution series at which antimicrobial and disinfecting action was visually determined without cloudiness,[2],>1024 µg/mL
same,concentration of the dilution series at which antimicrobial and disinfecting action was visually determined without cloudiness,[3],>1024 µg/mL
same,concentration of the dilution series at which antimicrobial and disinfecting action was visually determined without cloudiness,[4],1024 µg/mL
same,concentration of the dilution series at which antimicrobial and disinfecting action was visually determined without cloudiness,[5],>1024 µg/mL
same,concentration of the dilution series at which antimicrobial and disinfecting action was visually determined without cloudiness,[6],>1024 µg/mL
same,concentration of the dilution series at which antimicrobial and disinfecting action was visually determined without cloudiness,[7],1024 µg/mL
same,concentration of the dilution series at which antimicrobial and disinfecting action was visually determined without cloudiness,[8],1024 µg/mL
